Test results as given in ChEMBL document CHEMBL1157984, “Tsugicoline E, a new polyoxygenated protoilludane sesquiterpene from the fungus laurilia tsugicola1” (J Nat Prod, 1999).
The source made the active and inactive calls.

Experiments:
Type in all cases: functional, organism-based
Bacillus cereus = assay: Antimicrobial activity against Bacillus cereus at 100 ug/disk
Bacillus subtilis = assay: Antimicrobial activity against Bacillus subtilis at 100 ug/disk
Saccharomyces cerevisiae = assay: Antimicrobial activity against Saccharomyces cerevisiae at 100 ug/disk

Measured: Activity

CC1(C)C[C@H]2[C@H](O)[C@]3(O)CO[C@]4(O)[C@@H](O)[C@@](C)([C@H]34)[C@H]2C1
inactive: Bacillus cereus | Bacillus subtilis | Saccharomyces cerevisiae
